Experimental findings from patent US20260378560A1, “APPROACHES TO DESIGNING AND PERFORMING COMPRESSED BIOLOGICAL EXPERIMENTS AND SYSTEMS FOR IMPLEMENTING THE SAME” (EXVIVO LABS INC., priority 2023, published 2026) are described below.

The structures appear in SMILES notation.

Assay [1] deals with REH. The assay can be described thus: Cell viability (CellTiter Glo), compressed perturbation pools with informed pool design, MAX-based deconvolution, REH.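 For all read-outs here: higher DRS means a larger drug effect.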 As to conditions: REH; for DRS: None (measured individually), informed pool design table; for DRS from MAX-based deconvolution: Samples, 7 Pick 3 informed perturbation pools. The method, then:
(§1) Total cell viability was measured for each sample using an ATP-based luminescence assay (i.e., CellTiter Glo). Each cancer drug was then screened at multiple concentrations ranging from one nM to ten μM in order to generate a dose-response curve and calculate a DRS for each cancer cell line.
(§2) Each cancer drug was cultured with target cells individually. At the end of the screen, samples were either analyzed individually or compressed into pools for analysis. The library was compressed alphabetically into ten cohorts, each of which contained seven cancer drugs present in three out of the seven pools, as shown in Table VII. Said another way, the screening platform 210 generated a “7 pick 3” compressed library by assigning the cancer drugs among different pools. […] The library was also compressed into ten cohorts with pools designed based on information known about each cancer drug, as shown in Table VIII. After cell viability measurement and DRS calculation, the DRS of each cancer drug in the samples generated based on the pools were deconvoluted and compared to the DRS for each cancer drug measured individually.
(§3) In parallel to the exemplary sample compression screen covered in Table VII, perturbations were compressed into pools and then screened. The pools were designed using drug class as a feature with two compression rules (or simply “rules”). The first rule required that drugs from the same class be separated into different cohorts (i.e., mutually exclusive groups of pools). […] A benefit of compressing perturbations is the ability to measure additive, antagonistic, and synergistic effects between drugs in the same pool. However, these effects can negatively impact deconvolution of individual drug effects. Therefore, combinations of drugs for which evidence of clinical toxicity exists can be assigned to different pools in accordance with an informed pooling operation. As new preclinical or clinical evidence of toxic combinations becomes available, the rules implemented by the screening platform 210—and more specifically, its algorithm for compressing members of a library—can be updated accordingly.
(§4) In MAX-based deconvolution, an assumption of neutrality between the compressed perturbations is made. In other words, the perturbation with the largest effect is assumed to be masking the effects, if any, of the other perturbations in the pool. For SUM- and MAX-based deconvolution, qualitative deconvolution is first performed to rank the perturbations in each pool based on size of expected effect. Qualitative deconvolution, as described above, ranks the perturbations in a pool from largest effect size to smallest effect size. The ranking is based on the overlap of each perturbation's unique subset of pools with the highest and lowest measured pools. The perturbation with the largest effect is expected to be present in the pools with the highest measured signal or corresponding metric (e.g., DRS), while the perturbation with the smallest effect is expected to be present in the pools with the lowest measured signal or corresponding metric (e.g., DRS).
(§5) For MAX-based deconvolution, the highest ranked perturbation in the rank order is first assigned an effect size based on the pool with the lowest measured signal or corresponding metric (e.g., DRS) that it is present in. Said another way, the screening platform 210 can identify the highest ranked perturbation in the rank order and then assign an effect size based on the measured signal or corresponding metric (e.g., DRS) of the “weakest” pool in which the highest ranked perturbation is included. The screening platform 210 can repeat this step for the next highest ranked perturbation, and so on until the measurements for each pool have been assigned to one of the perturbations. The effects for the remaining perturbations can be assigned a value of zero, since it is assumed that their effect is masked by the perturbation with the largest effect in each pool.
Background: Cellular ATP, detected with luciferase, serves as a proxy for viable cell number.

Assay [2] deals with REH. The assay can be described thus: Cell viability (CellTiter Glo), library of cancer drugs, individual or sample compression with randomized (alphabetical) pools, REH. The class given is cell-based. As to conditions: REH; for DRS: None (measured individually); for DRS from deconvolution: Samples, 7 Pick 3 randomized (alphabetical) sample pools. The method, then: as §1, §2
(§6) In SUM-based deconvolution, an assumption of additivity is used to quantify the individual effects of each perturbation on each target. Additivity implies that each perturbation effect on each target is positively contributing to the overall effect measured for that pool. This is an accurate assumption for certain experiments, such as when targets or samples are compressed. When targets are pooled—or when samples containing different targets are pooled—the effect of each perturbation on each individual target is diluted. In other words, each perturbation has an isolated effect on a target in culture, and the sum total of the isolated effects are measured when pooled. Therefore, SUM-based deconvolution breaks down the sum total measured for a pool and assigns estimated fractional effects to each compressed perturbation or target in the pool. The screening platform 210 used SUM-based deconvolution for all target and sample compression experiments described above.

Assay [3] deals with MOLT-4. The assay can be described thus: Cell viability (CellTiter Glo), compressed perturbation pools with informed pool design, MAX-based deconvolution, MOLT-4.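 For all read-outs here: higher DRS means a larger drug effect.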 As to conditions: for DRS: MOLT-4, None (measured individually), informed pool design table; for DRS from MAX-based deconvolution: MOLT-4, Samples, 7 Pick 3 informed perturbation pools. As for the experimental part:
as §1, §2, §3, §4, §5

The test system of assay [4] is MOLT-4. The assay can be described thus: Cell viability (CellTiter Glo), library of cancer drugs, individual or sample compression with randomized (alphabetical) pools, MOLT-4. The class given is cell-based. As to conditions: for DRS: MOLT-4, None (measured individually); for DRS from deconvolution: MOLT-4, Samples, 7 Pick 3 randomized (alphabetical) sample pools. The method, then:
as §1, §2, §6

For `CC(C)C[C@H](NC(=O)CNC(=O)c1cc(Cl)ccc1Cl)B(O)O` [Ixazomib], the DRS with REH [1] is 0.00; in the assay with REH [2], 15.29; with MOLT-4 [3] it was 0.00; in the assay on MOLT-4 [4] it was 13.99. The “DRS from MAX-based deconvolution” value in the assay on REH [1] and in the assay on MOLT-4 [3] was 0.00 throughout. The results for the DRS from deconvolution with REH [2] and in the assay with MOLT-4 [4] were 15.74 and 14.23, respectively.
Regarding `CS(=O)(=O)c1ccc(C(=O)Nc2ccc(Cl)c(-c3ccccn3)c2)c(Cl)c1` [Vismodegib], the DRS in the assay with REH [1] is on record as 2.58; in the assay with REH [2], 0.00; in the assay on MOLT-4 [3], 4.08; in the assay with MOLT-4 [4], 0.70. Besides, the “DRS from MAX-based deconvolution” value was 3.06 in the assay with REH [1] and 4.35 in the assay with MOLT-4 [3]. The DRS from deconvolution was found to be 0.00 in the assay on REH [2] and 0.56 in the assay on MOLT-4 [4].
`CN(C)C(=O)c1cc2cnc(Nc3ccc(N4CCNCC4)cn3)nc2n1C1CCCC1` [Ribociclib]: the DRS is listed as 12.67 in the assay with REH [1], 0.84 with REH [2], 9.01 in the assay on MOLT-4 [3] and 0.24 in the assay on MOLT-4 [4]. Further, the “DRS from MAX-based deconvolution” value with REH [1] is on record as 14.44; in the assay on MOLT-4 [3] it was 11.35. In addition, the DRS from deconvolution with REH [2] and in the assay with MOLT-4 [4] was 0.00 throughout.
As for `CNC(=O)c1cc(Oc2ccc(NC(=O)Nc3ccc(Cl)c(C(F)(F)F)c3)c(F)c2)ccn1` [Regorafenib], the DRS was found to be 2.85 in the assay with REH [1], 6.99 in the assay with REH [2], 3.95 with MOLT-4 [3] and 5.79 in the assay on MOLT-4 [4]. The figures for the “DRS from MAX-based deconvolution” value in the assay with REH [1] and in the assay with MOLT-4 [3] were 2.97 and 4.25, respectively. Besides, the values for the DRS from deconvolution with REH [2] and with MOLT-4 [4] were 7.23 and 5.22, respectively.
On to `CC/C(=C(\c1ccccc1)c1ccc(OCCN(C)C)cc1)c1ccccc1` [Tamoxifen], for which the DRS with REH [1] amounted to 0.14; in the assay on REH [2] it was 3.12; with MOLT-4 [3] it was 0.74; in the assay with MOLT-4 [4], 1.12. For the same molecule, the “DRS from MAX-based deconvolution” value with REH [1] and in the assay on MOLT-4 [3] was 0.00 in each case. Also, the DRS from deconvolution in the assay with REH [2] was 3.01; in the assay with MOLT-4 [4] it was 1.09.
Regarding `COC(=O)N[C@@H](C)CNc1nccc(-c2cn(C(C)C)nc2-c2cc(Cl)cc(NS(C)(=O)=O)c2F)n1` [Encorafenib], the DRS came out at 0.70 with REH [1], 1.84 in the assay on REH [2], 4.30 in the assay on MOLT-4 [3] and 0.24 in the assay with MOLT-4 [4]. The “DRS from MAX-based deconvolution” value with REH [1] and with MOLT-4 [3] was 0.00 each time. In addition, the DRS from deconvolution with REH [2] is on record as 2.10; with MOLT-4 [4], 0.21.
With `Nc1cc(F)ccc1NC(=O)c1ccc(CNC(=O)/C=C/c2cccnc2)cc1` [Tucidinostat], the DRS amounted to 2.40 with REH [1], 10.87 in the assay with REH [2], 0.50 in the assay with MOLT-4 [3] and 6.77 with MOLT-4 [4]. The “DRS from MAX-based deconvolution” value in the assay on REH [1] and in the assay with MOLT-4 [3] was 0.00 each time. Further, the DRS from deconvolution was 11.23 in the assay with REH [2] and 7.95 in the assay on MOLT-4 [4].
For `C=C(c1ccc(C(=O)O)cc1)c1cc2c(cc1C)C(C)(C)CCC2(C)C` [Bexarotene], the DRS in the assay on REH [1] is 4.94; in the assay on REH [2], 1.00; in the assay with MOLT-4 [3] it was 4.84; in the assay on MOLT-4 [4] it was 7.00. The “DRS from MAX-based deconvolution” value turned out to be 5.97 in the assay with REH [1] and 5.31 in the assay on MOLT-4 [3]. Further, the DRS from deconvolution in the assay with REH [2] and with MOLT-4 [4] was 0.00 throughout.
Regarding `Cn1cnc2c(F)c(Nc3ccc(Br)cc3F)c(C(=O)NOCCO)cc21` [Binimetinib], the DRS amounted to 0.37 in the assay on REH [1], 0.00 in the assay with REH [2], 0.11 in the assay with MOLT-4 [3] and 0.00 in the assay on MOLT-4 [4]. Moreover, the “DRS from MAX-based deconvolution” value with REH [1] and in the assay with MOLT-4 [3] was 0.00 each time. The DRS from deconvolution in the assay on REH [2] and in the assay on MOLT-4 [4] was 0.00 throughout.
With `C[C@@H]1CCN(C(=O)CC#N)C[C@@H]1N(C)c1ncnc2[nH]ccc12` [Tofacitinib], the DRS with REH [1] is 3.15; in the assay with REH [2] it was 0.20; with MOLT-4 [3], 2.96; in the assay on MOLT-4 [4], 0.00. The “DRS from MAX-based deconvolution” value amounted to 4.06 in the assay on REH [1] and 0.00 with MOLT-4 [3]. The DRS from deconvolution in the assay with REH [2] and with MOLT-4 [4] was 0.00 each time.
`O=C(CCCCCCC(=O)Nc1ccccc1)NO` [Vorinostat]: the DRS in the assay on REH [1] worked out at 2.01; in the assay on REH [2], 12.12; in the assay with MOLT-4 [3] it was 1.84; in the assay with MOLT-4 [4] it was 13.42. In addition, the “DRS from MAX-based deconvolution” value in the assay on REH [1] and in the assay with MOLT-4 [3] was 0.00 in each case. Further, the DRS from deconvolution with REH [2] is recorded as 12.11; in the assay on MOLT-4 [4] it was 13.67.
As for `C=C1C[C@@H]2[C@H](CC[C@]3(C)C(=O)CC[C@@H]23)[C@@]2(C)C=CC(=O)C=C12` [Exemestane], the DRS in the assay on REH [1] is on record as 1.84; in the assay on REH [2] it was 0.00; in the assay on MOLT-4 [3], 1.04; with MOLT-4 [4] it was 0.00. For the same molecule, the “DRS from MAX-based deconvolution” value in the assay on REH [1] and in the assay on MOLT-4 [3] was 0.00 in each case. Further, the DRS from deconvolution in the assay with REH [2] and with MOLT-4 [4] was 0.00 in each case.
Turning to `C[C@H]1Oc2cc(cnc2N)-c2c(nn(C)c2C#N)CN(C)C(=O)c2ccc(F)cc21` [Lorlatinib], the DRS with REH [1], in the assay with REH [2], in the assay on MOLT-4 [3] and in the assay with MOLT-4 [4] was 0.00 in each case. In addition, the “DRS from MAX-based deconvolution” value in the assay with REH [1] and in the assay with MOLT-4 [3] was 0.00 throughout. Besides, the DRS from deconvolution in the assay on REH [2] and with MOLT-4 [4] was 0.00 each time.
With `COc1cc2nccc(Oc3ccc(NC(=O)C4(C(=O)Nc5ccc(F)cc5)CC4)cc3)c2cc1OC` [Cabozantinib], the DRS worked out at 0.53 with REH [1], 8.20 with REH [2], 0.33 in the assay with MOLT-4 [3] and 2.70 in the assay with MOLT-4 [4]. For the same molecule, the “DRS from MAX-based deconvolution” value in the assay on REH [1] and in the assay on MOLT-4 [3] was 0.00 in each case. Also, the values for the DRS from deconvolution with REH [2] and in the assay on MOLT-4 [4] were 9.30 and 9.82, respectively.
In the case of `Cc1cc(Nc2ncnc3ccc(NC4=NC(C)(C)CO4)cc23)ccc1Oc1ccn2ncnc2c1` [Tucatinib], the DRS with REH [1] is given as 0.91; with REH [2], 0.30; in the assay with MOLT-4 [3] it was 0.80; in the assay on MOLT-4 [4], 0.00. In addition, the “DRS from MAX-based deconvolution” value in the assay with REH [1] and in the assay on MOLT-4 [3] was 0.00 in each case. In addition, the DRS from deconvolution turned out to be 0.21 in the assay on REH [2] and 0.00 with MOLT-4 [4].
